Data on three molecules can be found in patent publication US6858741B2, “Alkyl-dihalogenated phenyl-substituted ketoenols useful as pesticides and herbicides” (Bayer Aktiengesellschaft, priority 1995, dated 2005).

In data set [1] the test system is caterpillars of the fall armyworm (Spodoptera frugiperda). Kind of data set: Spodoptera test. Type of data set: in vivo. The conditions noted are these: after 7 days; active compound concentration 0.1%; dipped cabbage leaves. How it is done: [table] To produce a suitable preparation of active compound, 1 part by weight of active compound is mixed with the stated amount of solvent and the stated amount of emulsifier, and the concentrate is diluted with water to the desired concentration. Cabbage leaves (Brassica oleracea) are treated by being dipped into the preparation of active compound of the desired concentration and are infested with caterpillars of the fall armyworm (Spodoptera frugiperda) while the leaves are still moist. After the specified period of time, the destruction in % is determined. 100% means that all the caterpillars have been killed; 0% means that none of the caterpillars have been killed.

The test system of data set [2] is greenhouse red spider mite or two-spotted spider-mite (Tetranychus urticae). As to the kind of experiment: Tetranychus test (OP-resistant/spray treatment). The conditions noted are these: after 7 days; active compound concentration 0.004%; spray treatment of bean plants. The class given is in vivo. How it is done:
[table] To produce a suitable preparation of active compound, 1 part by weight of active compound is mixed with the stated amount of solvent and the stated amount of emulsifier, and the concentrate is diluted with water to the desired concentrations. Bean plants (Phaseolus vulgaris) which are severely infested with all development stages of the greenhouse red spider mite or two-spotted spider-mite (Tetranychus urticae) are sprayed with a preparation of active compound of the desired concentration. After the specified period of time, the destruction in % is determined. 100% means that all the spider mites have been killed; 0% means that none of the spider mites have been killed.

Data set [3] concerns test plants. Kind of data set: Pre-emergence test/greenhouse. The class given is in vivo. The note with it: greenhouse, 250 g/ha, rated after three weeks vs untreated control, 0%=no action, 100%=total destruction. How it is done:
[table] To produce a suitable preparation of active compound, 1 part by weight of active compound is mixed with the stated amount of solvent, the stated amount of emulsifier is added and the concentrate is diluted with water to the desired concentration. Seeds of the test plants are sown in normal soil and, after 24 hours, watered with the preparation of the active compound. It is expedient to keep constant the amount of water per unit area The concentration of the active compound in the preparation is of no importance, only the amount of active compound applied per unit area being decisive. After three weeks, the degree of damage to the plants is rated in % damage in comparison to the development of the untreated control. The figures denote: • 0%=no action (like untreated control) 100%=total destruction [table]

Data set [4] concerns test plants. Kind of data set: Post-emergence test. The conditions noted are these: post-emergence (footnote *); 250 g/ha; rated after three weeks vs untreated control; 0%=no action, 100%=total destruction. Type of data set: in vivo.

With `Cc1cc(Cl)cc(Cl)c1C1=C(OC(=O)c2ccccc2)C2(CCCC(C)C2)NC1=O` (single isomer, unassigned) [Example I-1-b-5], the destruction in data set [1] worked out at 100%.
Consider `Cc1cc(Cl)cc(Cl)c1C1=C(OC(=O)C(C)(C)C)C2(CCCCC2)OC1=O` [Example I-2-b-1, 4-pivaloyl-oxy-3-(2,4-dichloro-6-methyl-phenyl)-5-spiro-cyclohexyl-tetronic acid], for which the melting point (as a rule, the temperature of the solid-liquid transition) is 137 °C. The “activity (destruction)” value in data set [2] was determined as 100%.
As for `Cc1cc(Cl)cc(Cl)c1-c1c(O)c(C)c(-c2ccccn2)oc1=O` [Example I-5-a-1], the “degree of damage, Alopecurus myosuroides” value in the data set with test plants [3] and in the data set with test plants [4] was 80% each time. Further, the “degree of damage, Beta vulgaris” value in the data set with test plants [3] and in the data set with test plants [4] was 0% each time.
